One data set relates to PC 12 cells. The format is cell-based. As for the experimental part:
Rat pheochromocytoma PC 12 cells were suspended with DMEM containing 5% horse serum and 10% fetal bovine serum, seeded in a poly-D-lysine-coated 96-well plate at a concentration of 10,000 cells per well, and incubated in a 5% carbon dioxide atmosphere at 37° C. for 3 days. After the solvent was removed, the cells were washed with 150 μL of serum-free DMEM, and DMEM (75 μL) containing 0.1% horse serum was added thereto. Thereafter, the 96-well plate was incubated in a 5% carbon dioxide atmosphere at 37° C. for 1 day for use in oxygenation reaction. In oxygenation reaction, the compound E (100 μM dimethyl sulfoxide solution) was added to a phosphate buffer saline containing Aβ (aggregated in advance for 3 hours, 40 μM) and 25 μL of the above cell solution (final concentration of Aβ: 10 μM, final concentration of compound E: 1 μM). The mixture was irradiated with an LED (wavelength: 780 nm) at a distance of approximately 5 cm at 37° C. for 5 minutes. The cells were incubated in a 5% carbon dioxide atmosphere at 37° C. for 48 hours. The cell viability was measured by using the Cell Count Reagent SF (NACALAI TESQUE, INC., Kyoto, Japan) with WST-8 (2-(2-methoxy-4-nitrophenyl)-3-(4-nitrophenyl)-5-(2,4-disulfophenyl)-2H-tetrazolium).
b: LC50 (dark) indicates the toxicity of a compound itself, and LC50 (light) indicates the phototoxicity of a compound. The PC 12 cells were placed in dark or subjected to photocatalytic treatment under light irradiation (wavelength: 660 nm), and incubated at 37° C. for 5 minutes, and then in a 5% carbon dioxide atmosphere at 37° C. for 48 hours, for which the cell viability was analyzed (n=5, mean±SEM).
b: The PC 12 cells were treated together with a photocatalyst (1 μM) at 37° C. for 5 minutes in dark or under light irradiation (wavelength: 780 nm), and thereafter the cell viability was analyzed (n=3, mean±SEM).

In another data set the target is T1, Aβ1-42 (Homo sapiens, UniProt P05067).
T1 construct: phosphate buffer (pH 7.4)/cell culture solution (containing 0.1% horse serum) (1:3) containing Aβ1-42 (10 μM)
Description: Degree of oxygenation of pre-aggregated Aβ1-42 (MALDI-TOF MS), Test Example 10. The format is biochemical. The following applies: pre-aggregated Aβ1-42 20 μM, catalyst 2 μM, phosphate buffer pH 7.4, 780 nm (14 mW), 37° C., 30 minutes. On the procedure: (§1) Aβ1-42 isopeptide (concentration: 250 μM in 0.1% aqueous solution of trifluoroacetic acid), angiotensin IV (200 μM aqueous solution), Met-enkephalin (200 μM aqueous solution), and somatostatin (200 μM aqueous solution) were added to a phosphate buffer or phosphate buffer saline (pH 7.4) (with 0.1 M aqueous solution of sodium hydroxide, as necessary) so that a final peptide concentration of 20 μM or 40 μM (pH 7.4) was reached. Before being subjected to oxygenation reaction, the Aβ1-42 solution was incubated at 37° C. for 1 to 3 hours. The phosphate buffer containing 40 μM of Aβ was diluted with a Dulbecco's modified Eagle's medium (DMEM, Life Technologies) containing 0.1% horse serum and buffered with 25 mM of 4-(2-hydroxyethyl)-1-piperazineethanesulfonic acid (HEPES).
(§2) Solutions of the compounds with a final concentration of 2 μM were used for evaluation of oxygenation of Aβ1-42. Solutions of the compounds with a final concentration of 5 μM were used for evaluation of peptide selectivity. Each mixture was subjected to light irradiation with an LED (wavelength: 500, 660, or 780 nm) at a distance of approximately 5 to 10 cm at room temperature. A control group without light irradiation was additionally prepared. Reaction was analyzed through monitor analysis with a MALDI-TOF MS. Degree of oxygenation was determined as a ratio: degree of oxygenation (%)=(total of MS intensities for n[O] adducts)/(MS intensity for native+total of MS intensities for n[O] adducts)×100. Aliquots of each reaction solution were desalted with a ZipTip U-C18 (Merck Millipore), as necessary, before mass spectrometry.
a: A phosphate buffer (pH 7.4) solution containing pre-aggregated Aβ1-42 (20 μM, incubated at 37° C. for 3 hours) and a catalyst (2 μM) was subjected to light irradiation (wavelength: 660 nm) at 37° C. for 30 minutes. Thereafter, the reaction mixture was analyzed by using a MALDI-TOF MS.
a: A phosphate buffer (pH 7.4) containing pre-aggregated Aβ1-42 (20 μM, obtained through incubation at 37° C. for 3 hours) and a catalyst (2 μM) were subjected to light irradiation at 780 nm (14 mW) at 37° C. for 30 minutes. The reaction mixture was analyzed by using a MALDI-TOF MS.

A further data set has as its target T2, somatostatin (Sst) (Homo sapiens, UniProt P61278).
T2 construct: angiotensin-IV (AT4), Met-enkephalin (ME), or somatostatin (Sst) (20 μM in each case)
Briefly: Aβ selectivity of oxygenation, Test Example 9. Format: biochemical. The following applies: peptide 20 μM, catalyst 5 μM, 780 nm (7 mW), 37° C., 30 minutes. As for the experimental part: as §1
as §2, with “Each mixture was subjected to light irradiation with an LED (wavelength: 500, 660, or 780 nm) at a distance of approximately 5 to 10 cm at room temperature.” left out

The target in the next data set is T3, Arctic Aβ1-38 (Homo sapiens, UniProt P05067, E693G).
T3 construct: The peak intensity decreased by 36%/53%/74% for Arctic Aβ1-38; from tissue; host or cells: cerebral cortex and hippocampus of App knock-in mouse
Format: biochemical. The following applies: mouse brain lysate, light 780 nm. On the procedure:
The brain excised from an eight-month-old App knock-in (App^NL-C-F/NL-C-F) mouse (Alzheimer's model mouse) was separated into the cerebral cortex, the hippocampus, and the residual brain tissues. The cerebral cortex and the hippocampus were homogenized together in a phosphate buffer saline, and the suspension was stored at −80° C. […] At an arbitrary point of time, an arbitrary aliquot of the reaction mixture was diluted with formic acid to a final concentration of 70%, concentrated, and redissolved in a 6 M aqueous solution of urea.

Like-named read-outs stand apart in the source and are kept apart here. A value given as a limit tells only on which side of the number the result lay.

`O=C(O)CCCCCN1CCCc2cc(/C=C/C3=[O+][B-](F)(C(F)(F)C(F)(F)F)OC(/C=C/c4cc5c6c(c4)CCCN6CCC5)=C3Br)ccc21` (stereo not drawn) [Compound E]: the CC50 with PC 12 cells is over 10 µM. In addition, the “Degree of oxygenation (%) of Aβ42 (λ = 780 nm)” value at Aβ1-42 stood at 58%. Besides, on somatostatin (Sst), the “oxygenation rate of somatostatin” value is listed as “lower than 5%”. Also, the “decrease of peak intensity (conversion) of Arctic Aβ1-38” value on Arctic Aβ1-38 (30 minutes) came out at 36%; at Arctic Aβ1-38 (60 minutes), 53%; on Arctic Aβ1-38 (150 minutes), 74%.

The term CC50 denotes the concentration at which the toxic effect on the cells reaches its halfway point.

These data come from US10669287B2, “Curcumin-boron complex and pharmaceutical containing same” (JAPAN SCIENCE AND TECHNOLOGY AGENCY, priority 2016, dated 2020).
